From ChEMBL document CHEMBL3608270, “Advances in tetrahydropyrido[1,2-a]isoindolone (valmerins) series: Potent glycogen synthase kinase 3 and cyclin dependent kinase 5 inhibitors” (Eur J Med Chem, 2015)

Key:
[1] = Selectivity index, ratio of IC50 for human recombinant CDK5/p25 to porcine brain GSK3alpha/beta
[2] = target: Glycogen synthase kinase-3 (Sus scrofa, UniProt B2LUN4+I6LNT8); test: Inhibition of porcine brain GSK3alpha/beta using GS-1 substrate and ATP
[3] = target: Cyclin-dependent kinase 5/CDK5 activator 1 (Homo sapiens, UniProt Q00535); test: Inhibition of human recombinant CDK5/p25 using histone H1 substrate and ATP; assay type: protein-complex assay
Cyclin-dependent kinase 5/CDK5 activator 1, sequence (Q00535 whole entry): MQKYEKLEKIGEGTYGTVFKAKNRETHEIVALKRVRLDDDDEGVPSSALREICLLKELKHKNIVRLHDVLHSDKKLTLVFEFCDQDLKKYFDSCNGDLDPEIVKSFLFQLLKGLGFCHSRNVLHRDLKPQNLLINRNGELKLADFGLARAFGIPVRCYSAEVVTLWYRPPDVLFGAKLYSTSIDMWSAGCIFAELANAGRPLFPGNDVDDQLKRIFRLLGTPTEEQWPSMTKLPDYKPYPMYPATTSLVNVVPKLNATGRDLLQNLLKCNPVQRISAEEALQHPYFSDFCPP
Cyclin-dependent kinase 5/CDK5 activator 1, sequence (Q15078 whole entry, further chain): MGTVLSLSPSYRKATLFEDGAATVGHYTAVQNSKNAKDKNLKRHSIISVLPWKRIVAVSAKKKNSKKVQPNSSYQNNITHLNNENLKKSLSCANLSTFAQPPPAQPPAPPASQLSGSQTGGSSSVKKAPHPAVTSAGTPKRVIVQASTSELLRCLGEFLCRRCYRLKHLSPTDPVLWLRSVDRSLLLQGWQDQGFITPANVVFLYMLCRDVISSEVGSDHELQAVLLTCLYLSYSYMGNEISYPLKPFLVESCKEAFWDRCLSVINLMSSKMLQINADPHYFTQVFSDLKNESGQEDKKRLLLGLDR

Caco-2 [4] = tested on: Caco-2
MDA-MB-231 [5] = tested on: MDA-MB-231
HCT-116 [6] = tested on: HCT-116
[7] = target: Dual specificity tyrosine-phosphorylation-regulated kinase 1A (Homo sapiens, UniProt Q13627); test: Inhibition of human recombinant GST-tagged DYRK1A expressed in Escherichia coli
PC-3 [8] = tested on: PC-3
NCI-H727 [9] = tested on: NCI-H727
Caco-2 [10] = test: cells; conditions: Homo sapiens, Caco-2, 48 h
HCT-116 [11] = test: cells; conditions: Homo sapiens, HCT-116, 48 h
MDA-MB-231 [12] = test: cells; conditions: Homo sapiens, MDA-MB-231, 48 h
cells = conditions: Homo sapiens, Huh-7, 48 h
NCI-H727 [13] = test: cells; conditions: Homo sapiens, NCI-H727, 48 h
PC-3 [14] = test: cells; conditions: Homo sapiens, PC-3, 48 h

SMILES | Ratio IC50 [1] | IC50 [2] [nM] | IC50 [3] [nM] | IC50 [7] [nM] | other results
O=C1CCN2C(=O)c3cccc(NC(=O)Nc4cnccn4)c3C2C1 (configuration not stated) | – | 1200 | 3600 | – | –
Cc1cnc(NC(=O)Nc2cccc3c2C2CC4(CCN2C3=O)SCCS4)cn1 (configuration not stated) | – | 55 | – | – | IC50 (Caco-2 [10]): 500 nM; IC50 (HCT-116 [11]): 200 nM; IC50 (MDA-MB-231 [12]): 400 nM; IC50 (cells): 300 nM; IC50 (NCI-H727 [13]): 800 nM; IC50 (PC-3 [14]): 400 nM
CO[C@@H]1CCN2C(=O)c3cccc(NC(=O)Nc4ncccc4C)c3[C@@H]2C1 (relative stereo) | – | – | 1100 | > 10000 | –
CO[C@@H]1CCN2C(=O)c3cccc(NC(=O)Nc4cnccn4)c3[C@@H]2C1 (relative stereo) | 2.4 | 200 | 480 | > 10000 | –
CO[C@@H]1CCN2C(=O)c3cccc(NC(=O)Nc4ccn(C)n4)c3[C@@H]2C1 (relative stereo) | – | – | 2300 | > 10000 | –
O=C(Nc1cnccn1)Nc1cccc2c1C1CC3(CCN1C2=O)SCCS3 (configuration not stated) | – | 44 | – | – | IC50 (Caco-2 [10]): 500 nM; IC50 (HCT-116 [11]): 100 nM; IC50 (MDA-MB-231 [12]): 150 nM; IC50 (cells): 100 nM; IC50 (NCI-H727 [13]): 400 nM; IC50 (PC-3 [14]): 600 nM
CO[C@@H]1CCN2C(=O)c3cccc(NC(=O)Nc4cnc(C)cn4)c3[C@@H]2C1 (relative stereo) | 10 | 140 | 320 | > 10000 | –
O=C(Nc1cnccn1)Nc1cccc2c1[C@@H]1C[C@H](O)CCN1C2=O (relative stereo) | – | 32 | 84 | > 10000 | IC50 (Caco-2 [4]): Not Active; IC50 (MDA-MB-231 [5]): Not Active; IC50 (HCT-116 [6]): Not Active; IC50 (PC-3 [8]): Not Active; IC50 (NCI-H727 [9]): Not Active
O=C(Nc1ccccn1)Nc1cccc2c1[C@@H]1C[C@H](O)CCN1C2=O | – | – | 2100 | – | –
CO[C@@H]1CCN2C(=O)c3cccc(NC(=O)Nc4cc(C)ccn4)c3[C@@H]2C1 (relative stereo) | 10 | 32 | 320 | > 10000 | IC50 (Caco-2 [10]): 500 nM; IC50 (HCT-116 [11]): 30 nM; IC50 (MDA-MB-231 [12]): 300 nM; IC50 (cells): 100 nM; IC50 (NCI-H727 [13]): 400 nM; IC50 (PC-3 [14]): 400 nM
Cc1cccnc1NC(=O)Nc1cccc2c1[C@@H]1C[C@H](O)CCN1C2=O (relative stereo) | – | – | 630 | – | –

Second part, led by results:

Ratio IC50 [1] | IC50 [2] [nM] | IC50 [3] [nM] | IC50 [7] [nM] | SMILES | other results
> 10 | 1000 | – | – | COc1cc(NC(=O)Nc2cccc3c2C2CC4(CCN2C3=O)OCCO4)nc2ccccc12 (configuration not stated) | –
> 5 | 2000 | – | – | Cc1cccc(NC(=O)Nc2cccc3c2C2CC4(CCN2C3=O)SCCS4)n1 (configuration not stated) | –
– | 35 | 4900 | > 10000 | COc1cc(NC(=O)Nc2cccc3c2[C@@H]2C[C@H](O)CCN2C3=O)nc2ccccc12 (relative stereo) | IC50 (Caco-2 [4]): Not Active; IC50 (MDA-MB-231 [5]): Not Active; IC50 (HCT-116 [6]): Not Active; IC50 (PC-3 [8]): Not Active; IC50 (NCI-H727 [9]): Not Active
> 5.2 | 1900 | – | – | Cn1ccc(NC(=O)Nc2cccc3c2C2CC4(CCN2C3=O)SCCS4)n1 (configuration not stated) | –
5 | 610 | – | – | Cc1cccnc1NC(=O)Nc1cccc2c1C1CC3(CCN1C2=O)OCCO3 (configuration not stated) | –
– | 230 | 1600 | – | O=C1CCN2C(=O)c3cccc(NC(=O)Nc4ccccn4)c3C2C1 (configuration not stated) | –
> 10 | 920 | – | – | Cc1cccc(NC(=O)Nc2cccc3c2C2CC4(CCN2C3=O)OCCO4)n1 (configuration not stated) | –
13.4 | 320 | 4300 | > 10000 | CO[C@@H]1CCN2C(=O)c3cccc(NC(=O)Nc4cccc(C)n4)c3[C@@H]2C1 (relative stereo) | –
6.8 | 81 | 550 | > 10000 | CO[C@@H]1CCN2C(=O)c3cccc(NC(=O)Nc4ccccn4)c3[C@@H]2C1 (relative stereo) | –
47.5 | 180 | 8500 | > 10000 | COc1cc(NC(=O)Nc2cccc3c2[C@@H]2C[C@H](OC)CCN2C3=O)nc2ccccc12 (relative stereo) | –
107 | 68 | – | – | O=C(Nc1ccc(Br)cn1)Nc1cccc2c1C1CC3(CCN1C2=O)SCCS3 (configuration not stated) | –
> 2.5 | 4000 | – | – | COc1cc(NC(=O)Nc2cccc3c2C2CC4(CCN2C3=O)SCCS4)nc2ccccc12 (configuration not stated) | –
– | – | 1000 | – | Cc1cccc(NC(=O)Nc2cccc3c2[C@@H]2C[C@H](O)CCN2C3=O)n1 | IC50 (Caco-2 [4]): Not Active; IC50 (MDA-MB-231 [5]): Not Active; IC50 (HCT-116 [6]): Not Active; IC50 (PC-3 [8]): Not Active; IC50 (NCI-H727 [9]): Not Active
7.2 | 33 | – | – | O=C(Nc1ccccn1)Nc1cccc2c1C1CC3(CCN1C2=O)SCCS3 (configuration not stated) | –
